# Experimental data taken from US20020035061A1, “COMPOSITIONS AND METHODS FOR TREATING INFECTIONS USING CATIONIC PEPTIDES ALONE OR IN COMBINATION WITH ANTIBIOTICS” (priority 1996, published 2002).
# Legend:
# bacterial isolates = assay: microbe, parasite or virus in culture; assay type: cell-based
# [1] = test system: microorganisms with acquired resistance; assay: microbe, parasite or virus in culture; assay type: cell-based
# [2] = H. influenzae 1, Piperacillin section
# [3] = S. marcescens 1, Piperacillin section
# [4] = peptide + Ceftriaxone, A. baumannii ABI002
# [5] = peptide + Piperacillin, H. influenzae 1
# [6] = peptide + Piperacillin, S. marcescens 1
sequence,measurement,setting,value
ILRWPWWPWRRK [MBI 11B7CN],Peptide MIC Alone,"bacterial isolates; 2. Ceftriaxone, A. baumannii ABI002",32 mg/L
same,Peptide MIC Alone,"bacterial isolates; 2. Ceftriaxone, A. baumannii ABI006",32 mg/L
same,Peptide MIC Alone,"bacterial isolates; 2. Ceftriaxone, B. cepacia BC003",>128 mg/L
same,Peptide MIC Alone,"bacterial isolates; 2. Ceftriaxone, P. aeruginosa PA008",128 mg/L
same,Peptide MIC Alone,"bacterial isolates; 2. Ceftriaxone, P. aeruginosa PA024",>128 mg/L
same,Peptide MIC Alone,"bacterial isolates; 2. Ceftriaxone, S. maltophilia SMA020",16 mg/L
same,Peptide MIC Alone,"bacterial isolates; 2. Ceftriaxone, S. maltophilia SMA021",32 mg/L
same,Peptide MIC Alone,"bacterial isolates; 2. Ceftriaxone, S. maltophilia SMA023",128 mg/L
same,Ceftriaxone MIC + Peptide,bacterial isolates; A. baumannii ABI002,8 mg/L
same,Peptide MIC + Ceftriaxone,bacterial isolates; A. baumannii ABI002,8 mg/L
same,Ceftriaxone MIC + Peptide,bacterial isolates; A. baumannii ABI006,16 mg/L
same,Ceftriaxone MIC + Peptide,bacterial isolates; B. cepacia BC003,16 mg/L
same,Peptide MIC + Piperacillin,bacterial isolates; E. cloacae 6,16 mg/L
same,Piperacillin MIC + Peptide,bacterial isolates; E. cloacae 6,16 mg/L
same,Peptide MIC Alone,"bacterial isolates; E. cloacae 6, Piperacillin section",32 mg/L
same,Peptide MIC + Piperacillin,bacterial isolates; E. cloacae 9,16 mg/L
same,Piperacillin MIC + Peptide,bacterial isolates; E. cloacae 9,1 mg/L
same,Peptide MIC Alone,"bacterial isolates; E. cloacae 9, Piperacillin section",32 mg/L
same,Peptide MIC + Piperacillin,bacterial isolates; E. cloacae 10,16 mg/L
same,Piperacillin MIC + Peptide,bacterial isolates; E. cloacae 10,0.5 mg/L
same,Peptide MIC Alone,"bacterial isolates; E. cloacae 10, Piperacillin section",32 mg/L
same,Peptide MIC + Piperacillin,bacterial isolates; H. influenzae 1,0.125 mg/L
same,Piperacillin MIC + Peptide,bacterial isolates; H. influenzae 1,32 mg/L
same,Peptide MIC Alone,bacterial isolates; [2],>128 mg/L
same,Peptide MIC + Piperacillin,bacterial isolates; H. influenzae SB1,0.125 mg/L
same,Piperacillin MIC + Peptide,bacterial isolates; H. influenzae SB1,0.25 mg/L
same,Peptide MIC Alone,"bacterial isolates; H. influenzae SB1, Piperacillin section",>128 mg/L
same,Peptide MIC + Piperacillin,bacterial isolates; P. aeruginosa 23,64 mg/L
same,Piperacillin MIC + Peptide,bacterial isolates; P. aeruginosa 23,2 mg/L
same,Peptide MIC Alone,"bacterial isolates; P. aeruginosa 23, Piperacillin section",128 mg/L
same,Ceftriaxone MIC + Peptide,bacterial isolates; P. aeruginosa PA008,16 mg/L
same,Peptide MIC + Ceftriaxone,bacterial isolates; P. aeruginosa PA008,16 mg/L
same,Ceftriaxone MIC + Peptide,bacterial isolates; P. aeruginosa PA024,32 mg/L
same,Peptide MIC + Ceftriaxone,bacterial isolates; P. aeruginosa PA024,0.125 mg/L
same,Peptide MIC + Piperacillin,bacterial isolates; S. aureus 19 MRSA,1 mg/L
same,Piperacillin MIC + Peptide,bacterial isolates; S. aureus 19 MRSA,32 mg/L
same,Peptide MIC Alone,"bacterial isolates; S. aureus 19 MRSA, Piperacillin section",4 mg/L
same,Peptide MIC + Piperacillin,bacterial isolates; S. maltophilia 5,64 mg/L
same,Piperacillin MIC + Peptide,bacterial isolates; S. maltophilia 5,64 mg/L
same,Peptide MIC Alone,"bacterial isolates; S. maltophilia 5, Piperacillin section",>128 mg/L
same,Peptide MIC + Piperacillin,bacterial isolates; S. maltophilia 9,64 mg/L
same,Piperacillin MIC + Peptide,bacterial isolates; S. maltophilia 9,64 mg/L
same,Peptide MIC Alone,"bacterial isolates; S. maltophilia 9, Piperacillin section",>128 mg/L
same,Peptide MIC + Piperacillin,bacterial isolates; S. maltophilia 11,32 mg/L
same,Piperacillin MIC + Peptide,bacterial isolates; S. maltophilia 11,64 mg/L
same,Peptide MIC Alone,"bacterial isolates; S. maltophilia 11, Piperacillin section",>128 mg/L
same,Ceftriaxone MIC + Peptide,bacterial isolates; S. maltophilia SMA020,64 mg/L
same,Peptide MIC + Ceftriaxone,bacterial isolates; S. maltophilia SMA020,8 mg/L
same,Ceftriaxone MIC + Peptide,bacterial isolates; S. maltophilia SMA021,64 mg/L
same,Peptide MIC + Ceftriaxone,bacterial isolates; S. maltophilia SMA021,8 mg/L
same,Ceftriaxone MIC + Peptide,bacterial isolates; S. maltophilia SMA023,32 mg/L
same,Peptide MIC + Ceftriaxone,bacterial isolates; S. maltophilia SMA023,16 mg/L
same,Peptide MIC + Piperacillin,bacterial isolates; S. marcescens 1,4 mg/L
same,Piperacillin MIC + Peptide,bacterial isolates; S. marcescens 1,8 mg/L
same,Peptide MIC Alone,bacterial isolates; [3],>128 mg/L
same,FIC,bacterial isolates; [4],0.50
same,FIC,"bacterial isolates; peptide + Ceftriaxone, A. baumannii ABI006",0.25
same,FIC,"bacterial isolates; peptide + Ceftriaxone, B. cepacia BC003",0.52
same,FIC,"bacterial isolates; peptide + Ceftriaxone, P. aeruginosa PA008",0.25
same,FIC,"bacterial isolates; peptide + Ceftriaxone, P. aeruginosa PA024",0.50
same,FIC,"bacterial isolates; peptide + Ceftriaxone, S. maltophilia SMA020",0.75
same,FIC,"bacterial isolates; peptide + Ceftriaxone, S. maltophilia SMA021",0.50
same,FIC,"bacterial isolates; peptide + Ceftriaxone, S. maltophilia SMA023",0.38
same,FIC,"bacterial isolates; peptide + Piperacillin, E. cloacae 6",0.56
same,FIC,"bacterial isolates; peptide + Piperacillin, E. cloacae 9",0.50
same,FIC,"bacterial isolates; peptide + Piperacillin, E. cloacae 10",0.50
same,FIC,bacterial isolates; [5],0.50
same,FIC,"bacterial isolates; peptide + Piperacillin, H. influenzae SB1",0.50
same,FIC,"bacterial isolates; peptide + Piperacillin, P. aeruginosa 23",0.56
same,FIC,"bacterial isolates; peptide + Piperacillin, S. aureus 19 MRSA",0.50
same,FIC,"bacterial isolates; peptide + Piperacillin, S. maltophilia 5",0.50
same,FIC,"bacterial isolates; peptide + Piperacillin, S. maltophilia 9",0.50
same,FIC,"bacterial isolates; peptide + Piperacillin, S. maltophilia 11",0.38
same,FIC,bacterial isolates; [6],0.27
same,Ceftriaxone MIC + Peptide,[1]; A. baumannii ABI002,8 mg/L
same,Peptide MIC + Ceftriaxone,[1]; A. baumannii ABI002,8 mg/L
same,Peptide MIC Alone,"[1]; A. baumannii ABI002, Ceftriaxone section",32 mg/L
same,Ceftriaxone MIC + Peptide,[1]; A. baumannii ABI005,8 mg/L
same,Peptide MIC + Ceftriaxone,[1]; A. baumannii ABI005,1 mg/L
same,Peptide MIC Alone,"[1]; A. baumannii ABI005, Ceftriaxone section",16 mg/L
same,Peptide MIC + Piperacillin,[1]; H. influenzae 1,1 mg/L
same,Piperacillin MIC + Peptide,[1]; H. influenzae 1,8 mg/L
same,Peptide MIC Alone,[1]; [2],>128 mg/L
same,Peptide MIC + Piperacillin,[1]; S. maltophilia 2,8 mg/L
same,Piperacillin MIC + Peptide,[1]; S. maltophilia 2,16 mg/L
same,Peptide MIC Alone,"[1]; S. maltophilia 2, Piperacillin section",128 mg/L
same,Peptide MIC + Piperacillin,[1]; S. marcescens 1,4 mg/L
same,Piperacillin MIC + Peptide,[1]; S. marcescens 1,8 mg/L
same,Peptide MIC Alone,[1]; [3],>128 mg/L
same,FIC,[1]; [4],0.50
same,FIC,"[1]; peptide + Ceftriaxone, A. baumannii ABI005",0.56
same,FIC,[1]; [5],0.13
same,FIC,"[1]; peptide + Piperacillin, S. maltophilia 2",1.00
same,FIC,[1]; [6],0.27
